# Test results published in US20230117034A1, “PYRAZOLOTRIAZINES” (Bayer Aktiengesellschaft, priority 2019, published 2023).
# Assays:
# [1] = biological target: T1, CDK12 (nuclear staining in CAL-120 cells) (Homo sapiens, UniProt Q9NYV4); assay: CDK12 nuclear protein level: immunofluorescence/high content analysis (CAL-120); assay type: cell-based; conditions: for DC50: CAL-120 cells, 24 h, immunofluorescence, 50% reduction of nuclear CDK12 staining intensity, median, read-out: CDK12 degradation IF, DC50- [mol/l] (median); for (IC50 CDK12 high ATP) to (Degradation DC50 CDK12) ratio: ratio of IC50 CDK12 high ATP kinase assay to DC50 CDK12 degradation (IF, CAL-120)
# T1 construct: endogenous in cells; host or cells: CAL-120 human breast cancer cells (DSMZ ACC 459)
# Method in brief: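 DC50 is the degrader concentration that halves nuclear CDK12 immunofluorescence relative to controls, measured by high-content imaging. CAL-120 cells were exposed to compound for 24 h at 37 °C before PFA fixation, and signal was normalized to DMSO and control wells.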
# CDK2/CycE = biological target: T2, CDK2/CycE (Homo sapiens, UniProt P24941); assay: CDK2/CycE kinase assay (TR-FRET, 2 mM ATP); assay type: biochemical; conditions: 2 mM ATP (high ATP); median; read-out: CDK2/CyclinE, 2 mM ATP (high ATP), IC50 (median)
# T2 construct: purchased ProQinase GmbH (Freiburg, Germany); host or cells: insect cells (Sf9)
# Method in brief: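 Biotin-peptide phosphorylation (0.75 µM substrate, 2 mM ATP final, 25 min, 22 °C) by Sf9-expressed GST-CDK2/GST-CycE, after a 15-min compound pre-binding step. Inhibition scaled between enzyme-free (100%) and uninhibited (0%) wells.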
# T1 sequence (Q9NYV4 whole entry): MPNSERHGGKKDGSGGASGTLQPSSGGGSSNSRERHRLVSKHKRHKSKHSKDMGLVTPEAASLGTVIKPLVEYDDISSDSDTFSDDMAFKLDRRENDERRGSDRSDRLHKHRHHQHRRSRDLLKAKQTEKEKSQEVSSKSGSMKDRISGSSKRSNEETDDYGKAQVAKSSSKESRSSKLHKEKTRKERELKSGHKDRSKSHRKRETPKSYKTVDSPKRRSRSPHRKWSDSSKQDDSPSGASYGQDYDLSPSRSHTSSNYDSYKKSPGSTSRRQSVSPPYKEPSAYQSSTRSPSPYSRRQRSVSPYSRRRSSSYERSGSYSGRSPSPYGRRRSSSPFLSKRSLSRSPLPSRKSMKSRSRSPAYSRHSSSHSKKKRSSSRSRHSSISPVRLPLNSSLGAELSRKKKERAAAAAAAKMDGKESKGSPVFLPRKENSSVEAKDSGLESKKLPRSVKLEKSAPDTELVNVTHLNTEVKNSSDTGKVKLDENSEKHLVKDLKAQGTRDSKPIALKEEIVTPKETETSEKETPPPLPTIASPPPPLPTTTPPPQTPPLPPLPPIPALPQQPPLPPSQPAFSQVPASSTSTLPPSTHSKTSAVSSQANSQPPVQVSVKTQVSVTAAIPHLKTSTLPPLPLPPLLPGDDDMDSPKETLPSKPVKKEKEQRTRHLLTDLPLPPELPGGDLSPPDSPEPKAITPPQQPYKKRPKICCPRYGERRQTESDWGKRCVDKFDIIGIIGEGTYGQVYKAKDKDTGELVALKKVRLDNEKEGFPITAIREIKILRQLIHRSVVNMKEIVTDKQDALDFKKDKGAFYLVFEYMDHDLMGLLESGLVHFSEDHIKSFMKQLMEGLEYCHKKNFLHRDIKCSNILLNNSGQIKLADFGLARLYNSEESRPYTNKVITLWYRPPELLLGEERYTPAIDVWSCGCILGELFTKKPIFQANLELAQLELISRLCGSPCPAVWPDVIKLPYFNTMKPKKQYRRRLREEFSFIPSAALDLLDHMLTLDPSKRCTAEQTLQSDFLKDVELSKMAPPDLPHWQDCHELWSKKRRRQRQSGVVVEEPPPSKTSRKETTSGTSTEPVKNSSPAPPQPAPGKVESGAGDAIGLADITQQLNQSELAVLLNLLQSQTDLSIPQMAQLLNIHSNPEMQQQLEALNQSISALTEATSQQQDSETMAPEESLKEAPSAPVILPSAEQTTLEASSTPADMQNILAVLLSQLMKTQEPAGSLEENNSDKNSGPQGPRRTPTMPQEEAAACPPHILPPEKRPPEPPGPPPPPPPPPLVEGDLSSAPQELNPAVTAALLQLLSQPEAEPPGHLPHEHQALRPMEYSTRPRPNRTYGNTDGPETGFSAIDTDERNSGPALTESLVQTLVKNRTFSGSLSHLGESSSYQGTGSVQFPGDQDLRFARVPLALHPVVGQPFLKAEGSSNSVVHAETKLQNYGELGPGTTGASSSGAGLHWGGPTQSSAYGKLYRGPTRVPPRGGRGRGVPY
# T1 sequence (O75909 whole entry partner): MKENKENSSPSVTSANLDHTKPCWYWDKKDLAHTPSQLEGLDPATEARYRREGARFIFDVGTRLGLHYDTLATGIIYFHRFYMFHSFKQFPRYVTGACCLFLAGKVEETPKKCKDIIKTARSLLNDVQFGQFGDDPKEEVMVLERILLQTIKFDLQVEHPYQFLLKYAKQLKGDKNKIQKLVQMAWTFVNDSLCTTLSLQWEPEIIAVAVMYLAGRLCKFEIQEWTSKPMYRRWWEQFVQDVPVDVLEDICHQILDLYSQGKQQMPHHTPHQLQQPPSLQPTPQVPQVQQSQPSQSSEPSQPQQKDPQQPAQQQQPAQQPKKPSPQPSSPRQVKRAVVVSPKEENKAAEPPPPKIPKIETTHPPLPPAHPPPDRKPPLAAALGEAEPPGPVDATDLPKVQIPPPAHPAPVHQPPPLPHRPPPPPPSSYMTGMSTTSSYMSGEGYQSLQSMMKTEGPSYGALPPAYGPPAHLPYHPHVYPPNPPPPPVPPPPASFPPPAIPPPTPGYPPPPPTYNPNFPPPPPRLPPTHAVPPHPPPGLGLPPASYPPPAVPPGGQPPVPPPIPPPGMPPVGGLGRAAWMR
DC50 [1] [nM],(IC50 CDK12 high ATP) to (Degradation DC50 CDK12) ratio [1],IC50 (CDK2/CycE) [nM],SMILES
1.78,6819,2980,"CC1CN(C)CCN1c1nc(NCc2nc3ccccc3[nH]2)n2ncc(Br)c2n1 (single isomer, unassigned; enantiomer 1) [Example 260, N-(1H-benzimidazol-2-ylmethyl)-8-bromo-2-[(2R or S)-2,4-dimethylpiperazin-1-yl]pyrazolo[1,5-a][1,3,5]triazin-4-amine (Enantiomer 1)]"
3.79,1239,3100,"NC12CC1CN(c1nc(NCc3nc4ccccc4[nH]3)n3ncc(Br)c3n1)C2 (stereo not drawn) [Example 258, 2-(1-amino-3-azabicyclo[3.1.0]hexan-3-yl)-N-(1H-benzimidazol-2-ylmethyl)-8-bromo-pyrazolo[1,5-a][1,3,5]triazin-4-amine]"
31.9,>627,16100,"Brc1cnn2c(NCc3nc4ccccc4[nH]3)nc(N3C[C@@H]4CN[C@@H]4C3)nc12.O=C(O)C(F)(F)F [Example 267, trifluoroacetic acid-N-[(1H-benzimidazol-2-yl)methyl]-8-bromo-2-[(1S,5S)-3,6-diazabicyclo[3.2.0]heptan-3-yl]pyrazolo[1,5-a][1,3,5]triazin-4-amine (1/1)]"

# Further lines, the compound ahead of its results:
SMILES,DC50 [1] [nM],(IC50 CDK12 high ATP) to (Degradation DC50 CDK12) ratio [1],IC50 (CDK2/CycE) [nM]
"Fc1ccc2[nH]c(CNc3nc(N4CC5CCC(C4)N5)nc4c(C(F)(F)F)cnn34)nc2c1F [Example 310, 2-(3,8-diazabicyclo[3.2.1]octan-3-yl)-N-[(4,5-difluoro-1H-benzimidazol-2-yl)methyl]-8-(trifluoromethyl)pyrazolo[1,5-a][1,3,5]triazin-4-amine]",17.3,75,> 18600
"Brc1cnn2c(NCc3nc4ccccc4[nH]3)nc(N3C[C@H]4CN[C@H]4C3)nc12.O=C(O)C(F)(F)F [Example 255, trifluoroacetic acid-N-[(1H-benzimidazol-2-yl)methyl]-8-bromo-2-[(1R,5R)-3,6-diazabicyclo[3.2.0]heptan-3-yl]pyrazolo[1,5-a][1,3,5]triazin-4-amine (1/1)]",19.2,>1044,> 20000
"CN1CCN(c2nc(NCc3nc4ccccc4[nH]3)n3ncc(C4CC4)c3n2)CC1 [Example 246, N-[(1H-benzimidazol-2-yl)methyl]-8-cyclopropyl-2-(4-methylpiperazin-1-yl)pyrazolo[1,5-a][1,3,5]triazin-4-amine]",3,>4287,> 20000
"Fc1ccc2[nH]c(CNc3nc(N4CCOCC4)nc4c(CC(F)(F)F)cnn34)nc2c1F [Example 268, N-[(4,5-difluoro-1H-benzimidazol-2-yl)methyl]-2-(morpholin-4-yl)-8-(2,2,2-trifluoroethyl)pyrazolo[1,5-a][1,3,5]triazin-4-amine]",1.9,1120,> 20000
"Fc1ccc2[nH]c(CNc3nc(N4CCOCC4)nc4c(C5CC5(F)F)cnn34)nc2c1F (stereo not drawn) [Example 278, N-[(4,5-difluoro-1H-benzimidazol-2-yl)methyl]-8-(2,2-difluorocyclopropyl)-2-(morpholin-4-yl)pyrazolo[1,5-a][1,3,5]triazin-4-amine]",1.18,2070,> 20000
